Test results taken from patent US5491145A, “Imidazopyridazines, their production and use” (Takeda Chemical Industries, Ltd., priority 1992, dated 1996).

test system: PAF-induced bronchoconstriction in guinea pigs; assay: Effect on platelet activating factor (PAF)-induced guinea pig bronchoconstriction (Konzett-Roessler method); assay type: in vivo, guinea pig (male Hartley); conditions: 3 mg/kg, administered orally one hour before PAF (1 μg/kg i.v.)
Description: Effect on platelet activating factor (PAF)-induced guinea pig bronchoconstriction Male Hartley guinea pigs (body weights about 500 g) were used. Bronchoconstriction induced by PAF, 1 μg/kg i.v., in guinea pigs was measured using to the method of Konzett-Roessler. With the guinea pig immobilized in the dorsal position, tracheotomy was performed under urethane (1.5 g/kg i.v.) anesthesia and the trachea was connected through a cannula to a respirator. The side branch of the tracheal cannula was connected to a transducer (model 7020, Ugobasile). With the volume of air per feed being controlled at 3-7 ml, the ventilation frequency at 70/min. and the pulmonary loading pressure at 10 cm H2 O, the volume of overflow air was recorded on a […], San-ei Sokki) through the transducer. After administration of gallamine (1 mg/kg i.v.), PAF, 1 μg/kg, dissolved in physiological saline was administered through a jugular vein cannula and the induced bronchoconstriction was recorded for 15 minutes. The drug suspended in a 5% solution of gum arabic was administered orally in a dose of 10 mg/kg or 3 mg/kg one hour before PAF treatment: The results are presented in Table 1.

First: 6-(2,2-diethyl-5-sulfamoyl-1-pentyloxy)-7-methylimidazo[1,2-b]pyridazine [Example 17]
Second: Cc1cc2nccn2nc1OCC(C)(C)CCS(N)(=O)=O [Example 11, 6-(2,2-dimethyl-4-sulfamoyl-1-butoxy)-7-methylimidazo[1,2-b]pyridazine]
The “% Inhibition of PAP-induced bronchoconstriction” value (from here on “% Inhibition”) of the first is lower: 54% for the first, 58% for the second.

Going from `CCC(CC)(COc1nn2ccnc2cc1C)CS(N)(=O)=O.Cl` [Example 15, 6-(2,2-diethyl-3-sulfamoyl-1-propoxy)-7-methylimidazo[1,2-b]pyridazine hydrochloride] to `CCC(C)(COc1nn2ccnc2cc1C)CS(N)(=O)=O` (stereo not shown) [Example 20], the “% Inhibition” value falls from 80% to 57%.

same assay, conditions: 10 mg/kg, administered orally one hour before PAF (1 μg/kg i.v.)

Compared with `Cc1cc2nccn2nc1OCC(C)(C)CS(N)(=O)=O` [Example 3, 6-(2,2-dimethyl-3-sulfamoyl-1-propoxy)-7-methylimidazo[1,2-b]pyridazine], `Cc1cc2nccn2nc1OCC(C)(C)CCS(N)(=O)=O` [Example 11, 6-(2,2-dimethyl-4-sulfamoyl-1-butoxy)-7-methylimidazo[1,2-b]pyridazine] is lower in “% Inhibition” value: 76% for the first, 71% for the second.

With `Cc1cc(OCC(C)(C)CS(N)(=O)=O)nn2ccnc12` [Example 5, 6-(2,2-dimethyl-3-sulfamoyl-1-propoxy)-8-methylimidazo[1,2-b]pyridazine] the “% Inhibition” value was 90%.
